From ChEMBL document CHEMBL4376805, “Plasmodium Purine Metabolism and Its Inhibition by Nucleoside and Nucleotide Analogues” (J Med Chem, 2019)

Assays:
Plasmodium falciparum [1] = experiment: Antimalarial activity against synchronized Plasmodium falciparum K1 ring form infected in human erythrocytes assessed as reduction in parasite growth after 72 hrs by Hoechst 33258 staining based fluorescence assay; type: functional, organism-based; details: K1, 72 h
[2] = Inhibition of Plasmodium falciparum HGXPRT using Prib-PP as substrate by Hanes-plot based method
[3] = biological target: T1, Hypoxanthine-guanine phosphoribosyltransferase (Homo sapiens, UniProt P00492)
T1 sequence (P00492 whole entry): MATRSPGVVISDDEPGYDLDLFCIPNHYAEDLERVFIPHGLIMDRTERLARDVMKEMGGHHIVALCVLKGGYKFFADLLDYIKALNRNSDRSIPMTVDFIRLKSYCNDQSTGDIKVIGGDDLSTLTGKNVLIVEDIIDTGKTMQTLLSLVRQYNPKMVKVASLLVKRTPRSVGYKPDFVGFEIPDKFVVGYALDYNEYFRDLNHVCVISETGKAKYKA
Description: Inhibition of human HGPRT using Prib-PP as substrate by Hanes-plot based method

[4] = Inhibition of Plasmodium vivax HGPRT using Prib-PP as substrate by Hanes-plot based method
[5] = biological target: T1, Hypoxanthine-guanine phosphoribosyltransferase; experiment: Inhibition of human N-terminal His6-tagged HGPRT using Prib-PP as substrate by Hanes-plot based method
[6] = Inhibition of Plasmodium falciparum N-terminal His6-tagged HGXPRT using Prib-PP as substrate by Hanes-plot based method
Plasmodium falciparum [7] = experiment: Antimalarial activity against Plasmodium falciparum D6 assessed as reduction in parasite growth preincubated for 48 hrs followed by addition of [3H]Hypoxanthine and measured after 48 hrs by [3H]Hypoxanthine incorporation assay; type: functional, organism-based
Plasmodium falciparum [8] = experiment: Antimalarial activity against chloroquine/ pyrimethamine-resitant Plasmodium falciparum W2 assessed as reduction in parasite growth preincubated for 48 hrs followed by addition of [3H]Hypoxanthine and measured after 48 hrs by [3H]Hypoxanthine incorporation assay; type: functional, organism-based
Plasmodium falciparum [9] = experiment: Antimalarial activity against Plasmodium falciparum FCQ-27 isolate infected in erythrocytes assessed as reduction in [G-3H]Hypoxanthine incorporation incubated for 24 hrs followed by addition of [G-3H]Hypoxanthine and measured after 18 to 20 hrs by scintillation counting method; type: functional
Plasmodium falciparum [10] = experiment: Antimalarial activity against Plasmodium falciparum; type: functional; details: read-out: ID50 (the source's name)

Nc1ncnc2c1ncn2C[C@H](CO)OCP(=O)(O)O
IC50 (Plasmodium falciparum [1]): 6 µM

Nc1ncnc2c1ncn2CCOCP(=O)(O)O [ADEFOVIR]
IC50 (Plasmodium falciparum [1]): > 250 µM

O=c1[nH]c(=O)c2ncn(C[C@H](CO)n3cc(P(=O)(O)O)nn3)c2[nH]1
Ki [2]: 2 µM
Ki [3]: > 500 µM

Nc1nc2c(ncn2C[C@H](CO)n2cc(P(=O)(O)O)nn2)c(=O)[nH]1
Ki [2]: 1 to 6 µM
Ki [3]: 0.1 µM
Ki [4]: 1 to 6 µM

Nc1nc2c(ncn2C[C@@H](CO)OCCP(=O)(O)O)c(=O)[nH]1
Ki [5]: 0.6 µM
Ki [6]: 0.1 µM

Nc1nc2c(ncn2[C@H]2CCN(C(=O)CP(=O)(O)O)C2)c(=O)[nH]1
Ki [2]: 400 µM
Ki [3]: 73000 µM
Ki [4]: 2600 µM

CCOC(=O)[C@H](Cc1ccccc1)NP(N)(=O)CCO[C@H](CO)Cn1cnc2c(=O)[nH]cnc21 (some centres undefined)
IC50 (Plasmodium falciparum [7]): > 250 µM
IC50 (Plasmodium falciparum [8]): > 250 µM

O=C(CCP(=O)(O)O)N1C[C@@H](n2cnc3c(O)ncnc32)[C@H](OC[C@@H](O)P(=O)(O)O)C1
Ki [2]: 0.002 µM
Ki [4]: 0.006 µM

Nc1nccc2c1ncn2C[C@H](CO)OCP(=O)(O)O
IC50 (Plasmodium falciparum [1]): 100 µM

COC(=O)[C@H](Cn1cnc2c(=O)[nH]cnc21)OCCP(=O)(O)O
Ki [5]: 6 µM
Ki [6]: 1 µM

Nc1nccc2c1ncn2C[C@@H](CO)OCP(=O)(O)O
IC50 (Plasmodium falciparum [1]): 0.29 µM

CC(C)(C)C(=O)OCOP(=O)(COCCn1cnc2c(N)ncnc21)OCOC(=O)C(C)(C)C [ADEFOVIR DIPIVOXIL]
IC50 (Plasmodium falciparum [1]): 37.3 µM

Nc1nc2c(nc(Br)n2C[C@@H](CO)OCCP(=O)(O)O)c(=O)[nH]1
Ki [5]: 13 µM
Ki [6]: > 30 µM

Nc1ncnc2c1ccn2[C@@H]1O[C@H](CO)[C@@H](O)[C@H]1O [TUBERCIDIN]
IC37 (Plasmodium falciparum [9]): 0.7 µM

CCOC(=O)[C@H](Cc1ccccc1)NP(=O)(CCO[C@@H](Cn1cnc2c(=O)[nH]c(N)nc21)C(=O)OC)N[C@@H](Cc1ccccc1)C(=O)OCC
IC50 (Plasmodium falciparum [7]): 50 µM
IC50 (Plasmodium falciparum [8]): 50 µM

CNc1ncnc2c1ncn2[C@H]1C[C@H](O)[C@@H](CO)O1
IC37 (Plasmodium falciparum [9]): 10 µM

Nc1ncnc2c1ncn2[C@@H]1C[C@@H](OP(=O)(O)OC[C@H]2O[C@@H](n3cc(F)c(=O)[nH]c3=O)C[C@@H]2O)[C@H](CO)O1
IC50 (Plasmodium falciparum [10]): 5 µM

CCOC(=O)[C@H](Cc1ccccc1)NP(N)(=O)CCO[C@H](CO)Cn1cnc2c(=O)[nH]c(N)nc21 (some centres undefined)
IC50 (Plasmodium falciparum [7]): > 250 µM
IC50 (Plasmodium falciparum [8]): > 250 µM

Nc1ncnc2c1ncn2[C@H]1O[C@@H](CO)[C@H](OP(=O)(O)OC[C@H]2O[C@@H](n3cc(F)c(=O)[nH]c3=O)C[C@@H]2O)[C@@H]1O
IC50 (Plasmodium falciparum [10]): 4 µM

CCOC(=O)[C@H](Cc1ccccc1)NP(=O)(CCO[C@@H](Cn1cnc2c(=O)[nH]cnc21)C(=O)OC)N[C@@H](Cc1ccccc1)C(=O)OCC
IC50 (Plasmodium falciparum [7]): 50 µM
IC50 (Plasmodium falciparum [8]): 50 µM

Nc1nc(N)c2ncn(C[C@@H](CO)OCP(=O)(O)O)c2n1
IC50 (Plasmodium falciparum [1]): 2.1 µM

Nc1nc2c(ncn2C[C@@H](CO)n2cc(P(=O)(O)O)nn2)c(=O)[nH]1
Ki [2]: 2 µM
Ki [3]: 0.4 µM
Ki [4]: 2 µM

Nc1nc2c(ncn2[C@@H]2CN(C(=O)CCP(=O)(O)O)C[C@H]2OC[C@@H](O)P(=O)(O)O)c(=O)[nH]1
Ki [2]: 0.007 µM
Ki [4]: 0.008 µM

O=c1[nH]cnc2c1ncn2C[C@H](CO)n1cc(P(=O)(O)O)nn1
Ki [2]: 3 µM
Ki [3]: 8 µM
Ki [4]: > 100 µM

NC(=O)c1cn([C@@H]2O[C@H](CO)[C@@H](O)[C@H]2O)c2ncnc(N)c12 [SANGIVAMYCIN]
IC50 (Plasmodium falciparum [10]): 25 µM
IC37 (Plasmodium falciparum [9]): 0.3 µM

Nc1nc(Cl)nc2c1ncn2[C@@H]1O[C@H](CO)[C@@H](O)[C@H]1O
IC37 (Plasmodium falciparum [9]): 11 µM

Nc1ncnc2c1ncn2C[C@@H](CO)OCP(=O)(O)O
IC50 (Plasmodium falciparum [1]): 0.18 µM

Nc1nc(N)c2ncn(C[C@H](CO)OCP(=O)(O)O)c2n1
IC50 (Plasmodium falciparum [1]): 15 µM

CCOC(=O)[C@H](Cc1ccccc1)NP(=O)(CCO[C@H](CO)Cn1cnc2c(=O)[nH]c(N)nc21)N[C@@H](Cc1ccccc1)C(=O)OCC
IC50 (Plasmodium falciparum [7]): 22 to 70 µM
IC50 (Plasmodium falciparum [8]): 22 to 70 µM
